According to patent US20100249419A1, “UTILIZATION OF NOVEL COMPOUNDS WITH AMYLOID AFFINITY AND METHOD OF PRODUCING THE SAME” (NIHON MEDI-PHYSICS CO., LTD., priority 2007, published 2010):

Tests used:
amylin amyloid = target: T1, amylin amyloid (Homo sapiens, UniProt P10997); assay: In vitro binding of labeled compound to amylin amyloid (glass fiber filter); settings: amylin amyloid 0.8 μg/mL, 22° C., 3 hours
T1 construct: Amylin (human) (manufactured by Wako); purchased Wako
T1 sequence (P10997 34-70 limits assumed): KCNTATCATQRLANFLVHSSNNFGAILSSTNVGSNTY
Experimental: (1) Using methods described in Examples 29 and 30, a 1 mg/mL suspension of aggregated amylin was prepared (hereinafter referred to as amyloid suspension in this Example) was prepared.
(§1) (8) A solution of Compound 1 which was synthesized by the method above in Example 3 was prepared (radioactivity of 500 MBq/mL), and diluted with a 0.1% bovine serum albumin-containing phosphate buffer (pH 7.4) to prepare a solution of 1.2-112.9 pM in terms of the total amount of 2-[4′-(2″-hydroxyethoxy)phenyl]-6-iodoimidazo[1,2-a]pyridine. […]
(§2) (11) The glass fiber filter used for the filtration of the mixture was washed with a 0.1% bovine serum albumin-containing phosphate buffer (0.2 mL×5), and radioactivity of the glass fiber filter was measured with an autowell gamma system (manufactured by Aloka, Type: ARC-7001).
(12) From the measurement results of (11), relation between the amount of Compound 1 binding to amyloid and addition amount of amyloid was evaluated. For a non-specific binding, it was determined from a sample in which no amyloid suspension was added above in (9) (Example 36). […]

insulin amyloid = target: T2, insulin amyloid (Homo sapiens, UniProt P01308); assay: In vitro binding of labeled compound to insulin amyloid (glass fiber filter); settings: insulin amyloid 0.8 μg/mL, 22° C., 3 hours
T2 construct: 5 mg of insulin (manufactured by Sigma Aldrich Japan); purchased Sigma Aldrich Japan
T2 sequence (P01308 25-54 limits assumed): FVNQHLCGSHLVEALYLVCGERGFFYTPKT
T2 sequence (P01308 90-110 limits assumed): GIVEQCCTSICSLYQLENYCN
Experimental: Insulin with cross -sheet structure was prepared by the following procedures (2) and (3) which was the method described in the known literature (Burke, M. J. et al., Biochemistry. 11, p. 2435-2439 (1972)) to which a little modification was made.
(2) 5 mg of insulin (manufactured by Sigma Aldrich Japan) was dissolved in 1 mL of deionized water which was adjusted to pH 2 with hydrochloric acid, and the solution was heated at 90° C. for 10 minutes, and then quickly cooled in dry ice/ethanol.
(3) A sample solution of (2) was heated at 90° C. for 5 minutes, and then quickly cooled in dry ice/ethanol. […]
as §1, §2
(12) From the measurement results of (11), relation between the amount of Compound 1 binding to amyloid and addition amount of amyloid was evaluated. […]

| Substance | Radioactivity of the glass fiber filter versus amyloid non-added group (amylin amyloid) | Radioactivity of the glass fiber filter versus amyloid non-added group (insulin amyloid) |
| --- | --- | --- |
| 2-[4′-(3″-hydroxypropoxy)phenyl]-6-[^123I]iodoimidazo[1,2-a]pyridine [Compound 6] | all high compared to the group without amyloid suspension | all high compared to the group without amyloid suspension |
| 2-[4′-(2″-hydroxyethoxy)phenyl]-6-[^123I]iodoimidazo[1,2-a]pyridine [Compound 1] | all high compared to the group without amyloid suspension | all high compared to the group without amyloid suspension |
